In the first experiment the test system is Southern Armyworm (Spodoptera eridania), 2nd Instar Larvae. The experiment is described as follows: Southern armyworm leaf-dip test, 2nd instar larvae. Format: in vivo. As to conditions: foliar, 120 h, observation at 5 days, read-out: mortality in comparison with untreated controls. How it is done: 2.1 Southern Armyworm (Spodoptera eridania), 2nd Instar Larvae
The active compounds were formulated for testing the activity against insects and arachnids as a 10.000 ppm solution in a mixture of 35% acetone and water, which was diluted with water, if needed.
A Sieva lima bean leaf expanded to 78 cm in length is dipped in the test solution with agitation for 3 seconds and allowed to dry in a hood. The leaf is then placed in a 100×10 mm petri dish containing a damp filter paper on the bottom and ten 2nd instar caterpillars. At 5 days, observations are made of mortality, reduced feeding, or any interference with normal molting.
As usually defined, the mortality is the share of the test organisms that died. `O=C(NN=CC(Br)=Cc1ccccc1)c1ccccc1F` [Compound 192]: the mortality at 300 ppm is over 80%. With `CC(C=NNC(=O)c1cnccn1)=Cc1ccccc1` [Compound 177], the mortality at 300 ppm is over 80%. As for `O=C(NN=CC(Cl)=Cc1ccccc1)c1cccnc1` [Compound 162], the mortality at 300 ppm is over 80%. The same measure, in the same setting: in the case of `COc1ccc(C(=O)NN=CC(C)=Cc2ccccc2)cc1OC` [Compound 185] it was over 80%. On the same count and under the same terms, next, `CC(C=NNC(=O)c1cc(C(C)C)no1)=Cc1ccccc1` [Compound 238]: over 80%; `CC(C=NNC(=O)c1ccc(F)cc1)=Cc1ccccc1` [Compound 190]: over 80%; `CC(C=NNC(=O)c1cccnc1)=Cc1ccccc1` [Compound 160]: over 80%. Take `O=C(NN=CC(Cl)=Cc1ccccc1)c1ccc(Cl)s1` [Compound 97]: the mortality at 300 ppm is over 80%.

With `CC(C=NNC(=O)Cc1ccccc1)=Cc1ccccc1` [Compound 18], the mortality at 300 ppm was over 80%. For `CC(C=NNC(=O)c1ccc(F)cc1F)=Cc1ccccc1` [Compound 318], the mortality at 300 ppm is over 80%.

Turning to `CC(C=NNC(=O)c1ccccc1F)=Cc1cccc(F)c1` [Compound 198], the mortality at 300 ppm is over 80%.

For `CC(C=NNC(=O)c1cccnc1)=Cc1cccc(C(F)(F)F)c1` [Compound 161], the mortality at 300 ppm was over 80%.

The next experiment deals with Cotton Aphid (aphis gossypii). Put plainly: Cotton aphid test on cotton cotyledons. The following applies: 120 h, cotyledons dipped, after 5 days, read-out: mortality in comparison with untreated controls. Type of experiment: in vivo. An excerpt: 2.2 Cotton Aphid (aphis gossypii)
(§1) The active compounds were formulated in 50:50 acetone:water and 100 ppm Kinetic® surfactant.
Cotton plants at the cotyledon stage (one plant per pot) were infested by placing a heavily infested leaf from the main colony on top of each cotyledon. The aphids were allowed to transfer to the host plant overnight, and the leaf used to transfer the aphids was removed. The cotyledons were dipped in the test solution and allowed to dry. After 5 days, mortality counts were made.
In the case of `CC(C=NNC(=O)c1cccs1)=Cc1cccc(F)c1` [Compound 70], the mortality at 300 ppm is over 75%.

With `CC(C=NNC(=O)c1ccccc1F)=Cc1ccccc1` [Compound 194], the mortality at 300 ppm is over 75%. On the same count and under the same terms, in the case of `CC(C=NNC(=O)c1ncccc1F)=Cc1ccc(F)cc1` [Compound 399] it was over 75%; in that of `CC(C=NNC(=O)c1ccc(F)cc1F)=Cc1ccc(F)cc1` [Compound 319], over 75%.

With `CCC(C=NNC(=O)c1cccc(C)n1)=Cc1cccc(F)c1F` [Compound 395], the mortality at 300 ppm was over 75%. In the case of `CC(C=NNC(=O)c1cc(F)ccc1F)=Cc1cccc(F)c1` [Compound 203], the mortality at 300 ppm was over 75%. On to `CC(C=NNC(=O)c1cc(Cl)ccn1)=Cc1cccc(F)c1` [Compound 277], for which the mortality at 300 ppm is over 75%. On the same count and under the same terms, in the case of `CC(C=NNC(=O)c1cccs1)=Cc1ccc(F)cc1` [Compound 71] it was over 75%. On the same count and under the same terms, in the case of `CCC(C=NNC(=O)c1cccc(C)n1)=Cc1ccccc1F` [Compound 394] it was over 75%; in that of `CC(C=NNC(=O)c1ccccn1)=Cc1cccc(F)c1` [Compound 159], over 75%; in that of `CC(C=NNC(=O)c1ncccc1F)=Cc1ccccc1` [Compound 398], over 75%. Same read-out and setting: in the case of `CC(C=NNC(=O)c1cc(C(C)C)on1)=Cc1ccc(F)cc1` [Compound 236] it was over 75%; in that of `CC(C=NNC(=O)c1ccco1)=Cc1ccccc1` [Compound 121], over 75%. As to `CC(C=NNC(=O)c1cnccn1)=Cc1ccccc1F` [Compound 314], the mortality at 300 ppm is over 75%. Same read-out and setting: in the case of `CC(C=NNC(=O)c1cc(C(C)C)no1)=Cc1cccc(F)c1` [Compound 240] it was over 75%; in that of `CC(C=NNC(=O)c1ccccc1)=Cc1ccc(F)cc1` [Compound 181], over 75%. Consider `CC(C=NNC(=O)c1cc(F)ccc1F)=Cc1ccc(F)cc1` [Compound 202], for which the mortality at 300 ppm was over 75%.

For the compound `O=C(NN=CC(Cl)=Cc1ccccc1)c1ccco1` [Compound 120], the mortality at 300 ppm was over 75%. Still for that read-out and setting: in the case of `O=C(NN=CC=Cc1ccccc1F)c1ccco1` [Compound 130] it was over 75%; in that of `CC(C=NNC(=O)c1ccco1)=Cc1cccc(F)c1` [Compound 131], over 75%; in that of `O=C(NN=CC(Cl)=Cc1ccccc1)c1ccccn1` [Compound 157], over 75%. On the same count and under the same terms, in the case of `CC(C=NNC(=O)c1c(F)cccc1F)=Cc1cccc(F)c1` [Compound 207] it was over 75%; in that of `CCC(C=NNC(=O)c1ccco1)=Cc1ccccc1` [Compound 126], over 75%; in that of `CCC(C=NNC(=O)c1ccccn1)=Cc1ccccc1F` [Compound 392], over 75%.

Another experiment relates to Green Peach Aphid (Myzus persicae). The experiment is described as follows: Green peach aphid test on pepper plants. As to conditions: 120 h, leaves dipped, after 5 days, read-out: mortality in comparison with untreated controls. Format: in vivo.
Text: 2.3 Green Peach Aphid (Myzus persicae)
as §1
Pepper plants in the 2nd leaf-pair stage (variety ‘California Wonder’) were infested with approximately 40 laboratory-reared aphids by placing infested leaf sections on top of the test plants. The leaf sections were removed after 24 hr. The leaves of the intact plants were dipped into gradient solutions of the test compound and allowed to dry.
Test plants were maintained under fluorescent light (24 hour photoperiod) at about 25° C. and 20-40% relative humidity. Aphid mortality on the treated plants, relative to mortality on check plants, was determined after 5 days.
Consider `CC(C=NNC(=O)c1cc(C(C)C)on1)=Cc1cccc(F)c1` [Compound 237], for which the mortality at 300 ppm is over 75%.

Regarding `CC(C=NNC(=O)c1ccccc1F)=Cc1ccccc1` [Compound 194], the mortality at 300 ppm is over 75%.

With `CC(C=NNC(=O)c1cc(F)ccc1F)=Cc1ccccc1C` [Compound 204], the mortality at 300 ppm was over 75%. Take `CCC(C=NNC(=O)c1ccccn1)=Cc1ccc(F)cc1` [Compound 393]: the mortality at 300 ppm is over 75%. On the same count and under the same terms, next, `CC(C=NNC(=O)c1cccc(Cl)n1)=Cc1cccc(F)c1` [Compound 397]: over 75%; `CC(C=NNC(=O)c1ccncc1)=Cc1cccc(F)c1` [Compound 173]: over 75%; `CC(C=NNC(=O)c1ccc(F)cc1F)=Cc1ccccc1F` [Compound 321]: over 75%. `CC(C=NNC(=O)c1cc(C)nn1C)=Cc1ccccc1` [Compound 152]: the mortality at 300 ppm is over 75%.

Take `O=C(NN=CC(Cl)=Cc1ccccc1)c1ccccc1F` [Compound 195]: the mortality at 300 ppm was over 75%.

For the compound `O=C(NN=CC=Cc1ccccc1F)c1ccccc1F` [Compound 197], the mortality at 300 ppm is over 75%. Turning to `CC(C=NNC(=O)c1ccc(F)cc1F)=Cc1cccc(F)c1` [Compound 320], the mortality at 300 ppm was over 75%. On to `CC(C=NNC(=O)c1cccc(F)n1)=Cc1ccccc1` [Compound 400], for which the mortality at 300 ppm was over 75%. The same measure, in the same setting: next, `CC(C=NNC(=O)Cc1ccccc1)=Cc1cccc(F)c1` [Compound 19]: over 75%; `CC(C=NNC(=O)c1cc(Cl)ccn1)=Cc1ccccc1F` [Compound 278]: over 75%; `COc1ccccc1C(=O)NN=CC(C)=Cc1ccc(F)cc1` [Compound 186]: over 75%. Same read-out and setting: in the case of `CC(C=NNC(=O)c1cc(C(C)C)on1)=Cc1ccccc1` [Compound 235] it was over 75%; in that of `CC(C=NNC(=O)c1sccc1C)=Cc1ccccc1` [Compound 76], over 75%; in that of `CC(C=NNC(=O)c1ccccc1F)=Cc1cccc(F)c1` [Compound 198], over 75%.

Take `COc1ccc(CC(=O)NN=CC(C)=Cc2ccc(F)cc2)cc1OC` [Compound 20]: the mortality at 300 ppm was over 75%. As to `CC(C=NNC(=O)c1ccco1)=Cc1ccc(Cl)cc1` [Compound 128], the mortality at 300 ppm is over 75%. On to `CCC(C=NNC(=O)c1cccc(F)c1)=Cc1ccccc1` [Compound 200], for which the mortality at 300 ppm was over 75%.

The next experiment concerns Bean Aphid (aphis fabae). Put plainly: Bean aphid test on nasturtium plants. Type of experiment: in vivo. The following applies: 72 h, plant dipped, after 3 days, read-out: mortality in comparison with untreated controls.
Text: 2.4 Bean Aphid (aphis fabae)
as §1
Nasturtium plants grown in Metro mix in the 1st leaf-pair stage (variety ‘Mixed Jewle’) were infested with approximately 2-30 laboratory-reared aphids by placing infested cut plants on top of the test plants. The cut plants were removed after 24 hr. Each plant was dipped into the test solution to provide complete coverage of the foliage, stem, protruding seed surface and surrounding cube surface and allowed to dry in the fume hood. The treated plants were kept at about 25° C. with continuous fluorescent light. Aphid mortality was determined after 3 days.
For `CC(C=NNC(=O)c1ccccn1)=Cc1cccc(C)c1` [Compound 253], the mortality at 300 ppm is over 75%.

On to `O=C(NN=CC(Cl)=Cc1ccccc1)c1cccs1` [Compound 69], for which the mortality at 300 ppm is over 75%. As for `CC(C=NNC(=O)c1ccccc1F)=Cc1ccc(F)cc1` [Compound 199], the mortality at 300 ppm is over 75%.

In the case of `CC(C=NNC(=O)c1cccs1)=Cc1ccc(F)cc1` [Compound 71], the mortality at 300 ppm is over 75%. The same measure, in the same setting: in the case of `CC(C=NNC(=O)c1ccc(O)cc1)=Cc1ccc(F)cc1` [Compound 184] it was over 75%; in that of `CC(C=NNC(=O)c1ccc(F)cc1)=Cc1ccc(F)cc1` [Compound 191], over 75%.

For `CC(C=NNC(=O)c1ccccn1)=Cc1cccc(F)c1` [Compound 159], the mortality at 300 ppm is over 75%.

Turning to `CC(C=NNC(=O)c1ccc2ccccc2c1)=Cc1cccc(F)c1` [Compound 210], the mortality at 300 ppm is over 75%. In the case of `CC(C=NNC(=O)c1cnccc1C(F)(F)F)=Cc1ccc(F)cc1` [Compound 169], the mortality at 300 ppm was over 75%. The same measure, in the same setting: in the case of `O=C(NN=CC(Cl)=Cc1ccccc1)c1ccncc1` [Compound 170] it was over 75%. On the same count and under the same terms, in the case of `CC(C=NNC(=O)Cc1ccccc1)=Cc1ccccc1` [Compound 18] it was over 75%; in that of `CC(C=NNC(=O)c1cc(F)ccc1F)=Cc1ccc(F)cc1` [Compound 202], over 75%; in that of `CC(C=NNC(=O)c1ccncc1)=Cc1ccccc1` [Compound 171], over 75%.

As for `CC(C=NNC(=O)c1cnccc1C(F)(F)F)=Cc1ccccc1` [Compound 168], the mortality at 300 ppm is over 75%.

In the case of `O=C(NN=CC=Cc1ccccc1)c1ccccc1F` [Compound 196], the mortality at 300 ppm was over 75%. Same read-out and setting: in the case of `O=C(NN=CC(Cl)=Cc1ccccc1)c1ccccn1` [Compound 157] it was over 75%; in that of `CCC(C=NNC(=O)c1ccco1)=Cc1ccccc1` [Compound 126], over 75%.

Source of the values: patent publication US20070066627A1, “Hydrazone derivatives for combatting harmful insects and arachnids” (priority 2004, published 2007).
